Measured values taken from PMC9313812, “The Pseudo‐Natural Product Rhonin Targets RHOGDI” (Angewandte Chemie (International Ed. in English), 2022).

What was measured:
[1] = target: T1, RHOGDI1 (Homo sapiens, UniProt P52565); assay: Catch-and-release proteomics with lysine-reactive probe STPyne; type: binding; details: 100 µM compound, 30 µM STPyne, HEK293T lysate
T1 construct: GST; made in house; host or cells: E. coli
Protocol: Supplementary Table S11: Extracted list of STPyne PC cleaved RHOGDI peptides identified by catch-and-release proteomics. HEK293T lysate overexpressing RHOGDI-F was treated with 100 µM Rhonin or DMSO, followed by 30 µM STPyne. Asterisks indicate […]
(also on this page, place not known: S 11: catch -and-release RHOGDI -F DMS O, Modified lysine position Average ratio intensity STPyne-Rhonin-100 µM/DMSO SD ratio intensity STPyne-Rhonin-100 µM/DMSO 15) […]
(§1) (1 picture or pasted object on this page, not shown here)
Samples were acidified to a final concentration of 5% acetic acid, desalted over a self-packed C18 spin column, and dried. Peptides were resuspended in water with 0.1 % formic acid (FA) and analyzed using EASY-nLC 1200 nano-UHPLC coupled to Q Exactive HF-X Quadrupole-Orbitrap mass spectrometer (Thermo Scientific). The chromatography column consisted of a 45 cm long, 75 μm i.d. microcapillary capped by a 5 μm tip and packed with ReproSil -Pur 120 C18-AQ 2.4 μm beads (Dr. Maisch GmbH). LC solvents were 0.1 % FA in water (Buffer A) and 0.1 % FA in 90 % MeCN: 10 % water (Buffer B). […] The MS data was analyzed with MaxQuant[11] and searched against the human proteome (Uniprot), a common list of contaminants (included in MaxQuant) and the amino acid sequence of recombinant RHOGDI. […]

[2] = target: T2, PDEδ (Homo sapiens, UniProt O43924); assay: Competition-based fluorescence polarization with fluorescein-labelled atorvastatin; type: binding; details: selectivity test
T2 construct: GST (N); made in house; host or cells: E. coli Rosetta 2
Protocol: RHOGDI1 displaced liposome -bound RAC1 from the surface of L1 chip with a koff of 0.016 […]
bound RAC1. Calculated rate constants by mono-exponential fitting of RU decays were 0.02 and 0.032 s-1 for RHOGDI1-mediated RAC1 displacement from the liposomes in the presence of 7a and 7d, respectively. (d) Competition-based fluorescence polarization experiments were performed by titration of 7a against 10 nM fluorescein-labelled atorvastatin and GST-PDEδ.
(e) Fluorescence polarization experiment using 10 nM probe 10 and titration of PDEδ.
as §1
Label-free quantification (LFQ) intensities were logarithmized (log2) and proteins, which were not three times quantified in at least one of the groups, were filtered off. […]
Fluorescence polarization
The binding of probe 10 to RHOGDI1-3 was confirmed by fluorescence polarization experiments. […] The change in fluorescence polarization was monitored at an excitation / emission wavelengths of 535 nm and 593 nm, respectively. […]
To determine the effect of 7a on the binding of RHOGDI1 to non-prenylated RAC1-GDP, fluorescence polarization measurements were performed by titrating 1 µM TAMRA-GDP-bound RAC1 with increasing concentrations of RHOGDI1 in the presence and absence of 50 µM 7a in buffer containing 30 mM Tris-HCl, pH 7.5, 150 mM NaCl, 5 mM MgCl2, 1% DMSO. […]

| Competition with fluorescein-labelled atorvastatin for binding to PDEδ (in words) [2] | SMILES | STPyne labeling of RHOGDI1 lysines in presence of compound (in words) [1] |
| --- | --- | --- |
|  | COC(=O)C1(C(CC(=O)c2cccnc2)c2ccccc2)N=C(c2ccc(Br)cc2)C2C(=O)N(C)C(=O)C21 (centres unmarked) [7l] | lysines 186 and 199 in RHOGDI1 were less efficiently labeled |
| does not compete | COC(=O)C1(C(CC(=O)c2ccccc2)c2ccccc2)N=C(c2ccc(Br)cc2)C2C(=O)N(C)C(=O)C21 (centres unmarked) [7a] |  |
